Marks after values point to notes of the source that are not given here.
How the values were obtained:
[1] = tested on: patients, unsegmented populations; details: first generation antipsychotics; Davis et al. (2003); cited from earlier work
[2] = tested on: patients, populations not segmented by SULT4A1-1 status; details: meta-analysis, Leucht et al. (2009); negative = greater reduction in PANSS; cited from earlier work
[3] = tested on: CATIE African American schizophrenia patients; assay: CATIE drug response: change in total PANSS (LOCF), segmented by SULT4A1-1 status, African Americans; format: in vivo, human
Method: The design of the CATIE study has been described in detail by others (Lieberman et al., 2005; Stroup et al., 2003). […] A total of 738 subjects consented to provide DNA for genetic study. […] Retrospective genetic analyses, judged to be exempt from human studies requirements by an IRB, were conducted in the current study. All tested patients were studied using well established clinical endpoints comparing baseline, intermediate, and last observation carried forward (LOCF) for the PANSS scores using CATIE data. […] To remove time on drug as a variable for the CATIE trial, analysis was limited to only those patients who were randomized to a different drug following the initial washout period (drug switchers).

CATIE patients = assay: Kaplan-Meier survival (no hospitalization event) analysis, SULT4A1-1 negative vs positive; format: in vivo, human; details: FIG. 8
Method: A Kaplan-Meier survival analysis was performed to determine whether there was a difference between the survival (hospitalization) rates for the SULT4A1-1 negative and SULT4A1-1 positive patient populations treated with each of the atypical antipsychotics. Survival plots model the fraction of the population that survived (i.e., no hospitalization event) as a function of time.

[4] = tested on: patients, unsegmented populations; details: Meta-analysis, Leucht et al. (2009); cited from earlier work
CATIE Caucasian subjects = assay: Rate of hospitalization due to exacerbation of psychosis in CATIE by SULT4A1-1 status; format: in vivo, human; details: CATIE Phases 1, 2 and/or 3
Excerpt: For this analysis, the inventors assigned a dichotomous value (positive or negative) for hospitalization status to subjects in each phase of the trial based on only the first hospitalization event for a given patient in that phase.

[5] = tested on: CATIE Caucasian schizophrenia patients; assay: CATIE Phase 1 drug response: change in total PANSS (LOCF), drug switchers, segmented by SULT4A1-1 status; format: in vivo, human; details: for ≦−20% (number of individuals with this percent change in total PANSS; responders) / ≧−20% (number of individuals with this percent change in total PANSS; non-responders): CATIE Caucasians, LOCF; for Non Responder (number) / Responder (number): Table 16, 20% decrease in PANSS threshold, SULT4A1-1 positive group (sign not given)
Excerpt: There are several different metrics for quantifying response in clinical trials of antipsychotic medications. The most commonly used psychometric instrument is the Positive and Negative Syndrome Scale (PANSS), a 30-item semi-quantitative instrument scored by clinical professionals (Kay et al., 1987). The greater the decrease in PANSS score, the better the clinical response. The most direct measure of clinical response is absolute change in PANSS score. In addition to absolute change, the improvement is often reported as a percentage change from baseline PANSS score.
A decrease of at least 20% in total PANSS is one commonly used threshold for response (Leucht et al., 2009).
The design of the CATIE study has been described in detail by others (Lieberman et al., 2005; Stroup et al., 2003). […] A total of 738 subjects consented to provide DNA for genetic study. […] Retrospective genetic analyses, judged to be exempt from human studies requirements by an IRB, were conducted in the current study.
All tested patients were studied using well established clinical endpoints comparing baseline, intermediate, and last observation carried forward (LOCF) for the PANSS scores using CATIE data. LOCF analysis is a commonly used clinical endpoint for clinical trials for neuropsychiatric drugs, with changes in PANSS scores of between negative 20% and negative 30% used as typical endpoints to indicate clinically significant response (Leucht et al., 2009). To remove time on drug as a variable for the CATIE trial, analysis was limited to only those patients who were randomized to a different drug following the initial washout period (drug switchers).
As mentioned previously, the mean change in absolute or percent PANSS provides an important measure of efficacy in patients undergoing antipsychotic treatments. Indeed, many pivotal trials in the psychosis field used absolute and/or percentage change in PANSS Score as the primary endpoint (Leucht et al., 2009). […] Therefore, in addition to examining a categorical definition of clinically significant response, the inventors determined the impact of segmentation by SULT4A1-1 status on the quantitative measure of clinical improvement—delta PANSS.

[6] = tested on: CATIE Caucasian schizophrenia patients; assay: Time to discontinuation for all causes in the CATIE study; format: in vivo, human
Excerpt: The primary endpoint for the CATIE study was time to discontinuation for all causes (Lieberman et al., 2005). Thus the inventors evaluated the effect of SULT41-1 status on this important parameter.

| SMILES | ≦−20% (number of individuals; responders) ([3]; SULT4A1-1 Negative) | ≧−20% (number of individuals; non-responders) ([3]; SULT4A1-1 Negative) | ≦−20% (number of individuals; responders) ([3]; SULT4A1-1 Positive) | ≧−20% (number of individuals; non-responders) ([3]; SULT4A1-1 Positive) | HOSP (number of subjects hospitalized) (CATIE Caucasian subjects; SULT4A1-1 Positive) | HOSP (number of subjects hospitalized) (CATIE Caucasian subjects; SULT4A1-1 negative) | HOSP (number of subjects hospitalized) (CATIE Caucasian subjects; Unsegmented) | ≦−20% (number of individuals with this percent change in total PANSS; responders) ([5]; SULT4A1-1 Negative) | ≧−20% (number of individuals with this percent change in total PANSS; non-responders) ([5]; SULT4A1-1 Negative) | ≦−20% (number of individuals with this percent change in total PANSS; responders) ([5]; SULT4A1-1 Positive) | ≧−20% (number of individuals with this percent change in total PANSS; non-responders) ([5]; SULT4A1-1 Positive) | Non Responder (number) [5] | Responder (number) [5] | further results |
| --- | --- | --- | --- | --- | --- | --- | --- | --- | --- | --- | --- | --- | --- | --- |
| O=C1Cc2cc(CCN3CCN(c4nsc5ccccc45)CC3)c(Cl)cc2N1 [Ziprasidone] | 4 | 22 | 0 | 3 | 2 | 11 | 13 | 6 | 32 | 3 | 7 | 7 | 3 | Effect Size vs. FGA [1]: −0.04; Effect Size vs. Placebo [2]: −0.48; Difference between survival (no hospitalization) rates of SULT4A1-1 negative and SULT4A1-1 positive patients (CATIE patients): not statistically significant; Mean Difference in Total PANSS Score, Olanzapine vs. labelled drug [4]: −8.3; Mean Difference in Total PANSS Score, Olanzapine vs. labelled drug ([5]; CATIE SULT4A1-1 −): −2.1; Mean Difference in Total PANSS Score, Olanzapine vs. labelled drug ([5]; CATIE unsegmented): −4.9; Time to discontinuation, mean time in months ([6]; SULT4A1-1 Negative): 8.2*** Months |
| OCCN1CCN(CCCN2c3ccccc3Sc3ccc(Cl)cc32)CC1 [Perphenazine] | 10 | 27 | 0 | 2 | 1 | 9 | 10 | 16 | 47 | 5 | 9 | 9 | 5 | Time to discontinuation, mean time in months ([6]; SULT4A1-1 Positive): 7.6** Months |

Reference: patent US7972793B2, “Methods and compositions for the treatment of psychotic disorders through the identification of the SULT4A1-1 haplotype” (Suregene, LLC, priority 2009, dated 2011)
